Patent US7101878B1 (Agouron Pharmaceuticals, Inc., priority 1998, dated 2006)
Like-named read-outs stand apart in the source and are kept apart here.

Biological target: T1, human GnRH receptor (Homo sapiens, UniProt P30968)
T1 construct: expressed in transfected cells; host or cells: HEK 293 (hGnRH-R/293, from Dr. Stuart Sealfon)
T1 sequence (P30968 1-328): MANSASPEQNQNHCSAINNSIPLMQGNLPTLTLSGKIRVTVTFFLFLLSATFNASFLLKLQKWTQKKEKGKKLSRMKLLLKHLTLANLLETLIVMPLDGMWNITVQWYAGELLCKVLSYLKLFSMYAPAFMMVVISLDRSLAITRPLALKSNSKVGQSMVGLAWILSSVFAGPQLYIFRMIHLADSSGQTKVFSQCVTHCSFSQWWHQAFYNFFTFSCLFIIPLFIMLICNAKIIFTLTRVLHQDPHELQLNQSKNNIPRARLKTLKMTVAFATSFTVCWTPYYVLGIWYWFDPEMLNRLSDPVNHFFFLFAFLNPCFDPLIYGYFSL
Assay: Radioligand binding, 125I-GnRH-A displacement, membranes of HEK 293 cells with human GnRH receptor
Procedure, shortened: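 After filtration and PBS washes, bound radioactivity was counted by scintillation and IC50 derived. Identical conditions applied for non-human receptors.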

[1] = 1 uM, read-out: % Inhib. @ 1 uM hGnRH
[2] = 1 h, repeat of % Inhib. at 1 uM, read-out: Repeats @ 1 uM hGnRH

| Structure (SMILES) | inhibition at 1 µM [1] [%] | inhibition at 1 µM [2] [%] | % Inhib. @ 1 uM hGnRH (1 uM) [%] | Repeats @ 1 uM hGnRH (repeat of % Inhib. at 1 uM) |
| --- | --- | --- | --- | --- |
| Cc1cc2c(cc1Cc1ccc(C(=O)NCc3nc4ccccc4[nH]3)o1)C(C)(C)CCC2(C)C [drawing 1053] | 100 | 101 | – | – |
| Cc1cc2c(cc1Cc1ccc(C(=O)NCCc3ccc4c(c3)OCO4)o1)C(C)(C)CCC2(C)C [drawing 1055] | 51 | 56 | – | – |
| COc1ccc(C(=O)CNC(=O)c2ccc(Cc3cc4c(cc3C)C(C)(C)CCC4(C)C)o2)cc1 [drawing 1056] | 21 | 23 | – | – |
| Cc1cc2c(cc1Cc1ccc(C(=O)NCCc3ccc([N+](=O)[O-])cc3)o1)C(C)(C)CCC2(C)C [drawing 1057] | 30 | 44 | – | – |
| COc1cc(CCNC(=O)c2ccc(Cc3cc4c(cc3C)C(C)(C)CCC4(C)C)o2)cc(OC)c1O [drawing 1061] | 44 | 49 | – | – |
| Cc1cc2c(cc1Cc1ccc(C(=O)NCC3CCN(C(=N)N)CC3)o1)C(C)(C)CCC2(C)C [drawing 1063] | 26 | 87 | – | – |
| Cc1cc2c(cc1Cc1ccc(C(=O)NCC3CCN(c4ccnc(Cl)n4)CC3)o1)C(C)(C)CCC2(C)C [drawing 1064] | 79 | 91 | – | – |
| Cc1cc2c(cc1Cc1ccc(C(=O)NCc3ccccc3)o1)C(C)(C)CCC2(C)C [drawing 1070] | 82 | 85 | – | – |
| Cc1cc2c(cc1Cc1ccc(C(=O)NC(c3ccccc3)C(O)c3ccccc3)o1)C(C)(C)CCC2(C)C (centres unmarked) [drawing 1073] | – | – | −11 | −8 |
| Cc1cc2c(cc1Cc1ccc(C(=O)NC(c3ccccc3)c3ccccc3)o1)C(C)(C)CCC2(C)C [drawing 1077] | – | – | −7 | −7 |
| COc1ccccc1CNC(=O)c1ccc(Cc2cc3c(cc2C)C(C)(C)CCC3(C)C)o1 [drawing 1078] | 86 | 88 | – | – |
| Cc1cc2c(cc1Cc1ccc(C(=O)NCCNc3ccccc3)o1)C(C)(C)CCC2(C)C [drawing 1080] | 70 | 72 | – | – |
| Cc1cc2c(cc1Cc1ccc(C(=O)NCc3ccccc3F)o1)C(C)(C)CCC2(C)C [drawing 1090] | 81 | 89 | – | – |
| Cc1cc2c(cc1Cc1ccc(C(=O)N3CCN(c4ccccc4)CC3)o1)C(C)(C)CCC2(C)C [drawing 1092] | – | 6 | −1 | – |
| COc1cccc(CNC(=O)c2ccc(Cc3cc4c(cc3C)C(C)(C)CCC4(C)C)o2)c1OC [drawing 1093] | 76 | 83 | – | – |
| COc1ccc(CNC(=O)c2ccc(Cc3cc4c(cc3C)C(C)(C)CCC4(C)C)o2)cc1OC [drawing 1095] | 69 | 75 | – | – |
| Cc1ccccc1CNC(=O)c1ccc(Cc2cc3c(cc2C)C(C)(C)CCC3(C)C)o1 [drawing 1097] | 84 | 86 | – | – |
| Cc1cc2c(cc1Cc1ccc(C(=O)NCc3cccs3)o1)C(C)(C)CCC2(C)C [drawing 1099] | 82 | 85 | – | – |
| Cc1cc2c(cc1Cc1ccc(C(=O)NCc3cccc4ccccc34)o1)C(C)(C)CCC2(C)C [drawing 1120] | 61 | 71 | – | – |
| Cc1cc2c(cc1Cc1ccc(C(=O)N3CCN(c4ccccc4)CC3)o1)C(C)(C)CCC2(C)C [drawing 1121] | – | – | −6 | 6 |
| Cc1cc2c(cc1Cc1ccc(C(=O)NC3CCCc4ccccc43)o1)C(C)(C)CCC2(C)C (centres unmarked) [drawing 1127] | 14 | 27 | – | – |
| Cc1cc2c(cc1Cc1ccc(C(=O)NC(C)CCc3ccccc3)o1)C(C)(C)CCC2(C)C (centres unmarked) [drawing 1130] | 52 | 52 | – | – |
| Cc1cc2c(cc1Cc1ccc(C(=O)NCCCN3CCCC3=O)o1)C(C)(C)CCC2(C)C [drawing 1131] | 68 | 71 | – | – |
| Cc1cc2c(cc1Cc1ccc(C(=O)NCc3ccc(Cl)cc3Cl)o1)C(C)(C)CCC2(C)C [drawing 1133] | 53 | 64 | – | – |
| Cc1cc2c(cc1Cc1ccc(C(=O)NC(CO)Cc3ccccc3)o1)C(C)(C)CCC2(C)C (centres unmarked) [drawing 1137] | – | – | 17 | 20 |
| COc1cc(CCNC(=O)c2ccc(Cc3cc4c(cc3C)C(C)(C)CCC4(C)C)o2)cc(OC)c1 [drawing 1148] | 44 | 48 | – | – |
| Cc1cc2c(cc1Cc1ccc(C(=O)NC3CCCc4ccccc43)o1)C(C)(C)CCC2(C)C (centres unmarked) [drawing 1150] | – | – | 16 | 32 |
| COCCNC(=O)c1ccc(Cc2cc3c(cc2C)C(C)(C)CCC3(C)C)o1 [drawing 1155] | 55 | 61 | – | – |
| Cc1cc2c(cc1Cc1ccc(C(=O)NCCc3ccc(Br)cc3)o1)C(C)(C)CCC2(C)C [drawing 1171] | 16 | 24 | – | – |

Now from value to molecule:

| inhibition at 1 µM [1] [%] | inhibition at 1 µM [2] [%] | % Inhib. @ 1 uM hGnRH (1 uM) [%] | Repeats @ 1 uM hGnRH (repeat of % Inhib. at 1 uM) | Structure (SMILES) |
| --- | --- | --- | --- | --- |
| 85 | 85 | – | – | COC(=O)CCCCCNC(=O)c1ccc(Cc2cc3c(cc2C)C(C)(C)CCC3(C)C)o1 [drawing 1059] |
| – | – | 101 | 99 | Cc1cc2c(cc1Cc1ccc(C(=O)NCc3nc4ccccc4[nH]3)o1)C(C)(C)CCC2(C)C [drawing 1060] |
| 69 | 74 | – | – | Cc1cc2c(cc1Cc1ccc(C(=O)NCc3cccnc3)o1)C(C)(C)CCC2(C)C [drawing 1067] |
| 67 | 69 | – | – | Cc1cc2c(cc1Cc1ccc(C(=O)NCCOCCO)o1)C(C)(C)CCC2(C)C [drawing 1068] |
| – | – | −6 | 2 | Cc1cc2c(cc1Cc1ccc(C(=O)NC(c3ccccc3)c3ccccc3)o1)C(C)(C)CCC2(C)C [drawing 1071] |
| – | – | 56 | 57 | Cc1cc2c(cc1Cc1ccc(C(=O)NC(c3ccccc3)C(O)c3ccccc3)o1)C(C)(C)CCC2(C)C (centres unmarked) [drawing 1072] |
| 59 | 60 | – | – | Cc1cc2c(cc1Cc1ccc(C(=O)NCCc3ccccc3)o1)C(C)(C)CCC2(C)C [drawing 1079] |
| 79 | 82 | – | – | Cc1cc2c(cc1Cc1ccc(C(=O)NCc3ccco3)o1)C(C)(C)CCC2(C)C [drawing 1089] |
| 68 | 68 | – | – | Cc1cc2c(cc1Cc1ccc(C(=O)NCc3ccc(Cl)cc3)o1)C(C)(C)CCC2(C)C [drawing 1091] |
| -10 | 13 | – | – | COc1cc(OC)c(CNC(=O)c2ccc(Cc3cc4c(cc3C)C(C)(C)CCC4(C)C)o2)c(OC)c1 [drawing 1094] |
| 48 | 55 | – | – | CCOc1ccccc1CNC(=O)c1ccc(Cc2cc3c(cc2C)C(C)(C)CCC3(C)C)o1 [drawing 1096] |
| 89 | 92 | – | – | COc1ccc(CNC(=O)c2ccc(Cc3cc4c(cc3C)C(C)(C)CCC4(C)C)o2)cc1 [drawing 1098] |
| 62 | 69 | – | – | Cc1cc2c(cc1Cc1ccc(C(=O)NCc3cccc(Cl)c3Cl)o1)C(C)(C)CCC2(C)C [drawing 1102] |
| 77 | 84 | – | – | Cc1cc2c(cc1Cc1ccc(C(=O)NCc3ccccc3Cl)o1)C(C)(C)CCC2(C)C [drawing 1103] |
| 55 | 63 | – | – | Cc1cc2c(cc1Cc1ccc(C(=O)NCCc3ccccc3Cl)o1)C(C)(C)CCC2(C)C [drawing 1104] |
| -4 | 0 | – | – | Cc1cc2c(cc1Cc1ccc(C(=O)N(CCCO)Cc3ccccn3)o1)C(C)(C)CCC2(C)C [drawing 1107] |
| 61 | 70 | – | – | COc1ccccc1CCNC(=O)c1ccc(Cc2cc3c(cc2C)C(C)(C)CCC3(C)C)o1 [drawing 1114] |
| – | – | 72 | 72 | Cc1cc2c(cc1Cc1ccc(C(=O)NC(CO)Cc3ccccc3)o1)C(C)(C)CCC2(C)C (centres unmarked) [drawing 1117] |
| -2 | 3 | – | – | Cc1cc2c(cc1Cc1ccc(C(=O)N3CCN(c4ncccn4)CC3)o1)C(C)(C)CCC2(C)C [drawing 1124] |
| 38 | 45 | – | – | Cc1cc2c(cc1Cc1ccc(C(=O)NC3CCc4ccccc43)o1)C(C)(C)CCC2(C)C (centres unmarked) [drawing 1129] |
| 69 | 71 | – | – | Cc1cc2c(cc1Cc1ccc(C(=O)NCc3ccc(F)cc3)o1)C(C)(C)CCC2(C)C [drawing 1135] |
| 78 | 84 | – | – | Cc1cc2c(cc1Cc1ccc(C(=O)NCc3cccc(Cl)c3)o1)C(C)(C)CCC2(C)C [drawing 1136] |
| 53 | 58 | – | – | Cc1cc2c(cc1Cc1ccc(C(=O)NC(C)c3ccccc3)o1)C(C)(C)CCC2(C)C (centres unmarked) [drawing 1138] |
| -14 | -6 | – | – | Cc1cc2c(cc1Cc1ccc(C(=O)NCc3ccc(C(C)(C)C)cc3)o1)C(C)(C)CCC2(C)C [drawing 1140] |
| 58 | 63 | – | – | COc1cccc(CCNC(=O)c2ccc(Cc3cc4c(cc3C)C(C)(C)CCC4(C)C)o2)c1OC [drawing 1147] |
| 49 | 58 | – | – | Cc1cc2c(cc1Cc1ccc(C(=O)NC3CC3)o1)C(C)(C)CCC2(C)C [drawing 1149] |
